Measurements reported in patent US9951226B2, “Compound based on cyanine scaffold for diagnosis sepsis by selectively detect glutathione” (EWHA UNIVERSITY—INDUSTRY COLLABORATION FOUNDATION, priority 2014, dated 2018).

How the values were obtained:
[1] = Detection of biothiol: absorption and fluorescence spectrum with endogenous amino acids in HEPES buffer; assay type: biochemical; conditions: 10 μM compound; for absorption strength at 750 nm: HEPES pH 7.4, 10% DMSO, 25° C.; for fluorescence strength at 736 nm: λex=730 nm
Method: 10 μM of the compound prepared in Example 1 and 100 μM of each endogenous amino acid (glutathione, cysteine, homocysteine, dithiothreitol, phenylalanine, histidine, glutamine, lysine, glutamate, glycine, serine, alanine, arginine, methionine, tyrosine) were added to HEPES (4-(2-hydroxyethyl)piperazine-1-ethanesulfonic acid) buffer (10 mM, pH=7.4) containing 10% dimethylsulfoxide (DMSO), followed by observation of absorption spectrum presented through UV-vis sepctra (Scinco 3000 spectrophotometer, 1 cm quartz cell) at 25° C.
(§1) The following experiment was performed by the same manner as described in Experimental Example <1-1> except that fluorescence spectrum was observed by using RF-5310/PC fluorescence spectrometer (Shimada, 1 cm quartz cell) instead of observing absorption spectrum via UV-vis sepctra (Scinco 3000 spectrophotometer, 1 cm quartz cell) (λex=730 nm, λem=736 nm, slit:10/10 nm).

[2] = system: HeLa cells; assay: Detection of intracellular biothiol in HeLa cells, confocal laser scanning microscope; assay type: cell-based, human; conditions: 10 μM compound
Method: HeLa cells (human adenocarcinoma cells, Korea Cell Line Bank) were cultured in RPMI 1640 (Roswell Park Memorial Institute) supplemented with 10% heat-inactivated fetal bovine serum (FBS), 100 U/mL penicillin, and 100 U/mL streptomycin in a 37° C. 5% CO2 incubator. The cells were either treated or not treated with 1 mM of N-methylmaleimide (NMM) known as a thiol blocker for 20 minutes. 100 μM of each amino acid containing thiol group (R—SH) such as cysteine, homocysteine, and glutathione was added thereto. Then, the cells were seeded in 35-mm glass bottomed dishes at the density of 3×10^5 cells/dish in 1640 medium. 24 hours later, 10 μM of the compound prepared in Example 1 was added thereto, followed by culture at 37° C. for 20 minutes. The cells were washed with DPBS (Dulbecco's Phosphate Buffered Saline) twice to eliminate the remaining compound, followed by imaging with confocal laser scanning microscope (Fluoview 1200, Olympus, Japan). At this time, the emitting filter with the excitation wavelength of 635 nm and the band-path (BP) of 655˜755 nm was used.

[3] = Glutathione selectivity: absorption/fluorescence spectrum with various amino acids in HEPES buffer; assay type: biochemical
Method: 10 μM of the compound prepared in Example 2 was treated to HEPES (4-(2-hydroxyethyl)piperazine-1-ethanesulfonic acid) buffer (10 mM, pH=7.4) containing 10% DMSO and 100 μM of each glutathione, cysteine, homocysteine, dithiothreitol, phenylalanine, histidine, glutamine, lysine, glutamate, glycine, serine, alanine, arginine, methionine, and tyrosine, followed by observation of fluorescence spectrum at 25° C. by using RF-5310/PC fluorescence spectrometer (Shimada, 1 cm quartz cell).
An experiment was performed by the same manner as described in Experimental Example 3 except that the fragment 1 or the fragment 2 was used instead of the compound prepared in Example 2. […] To disclose the reason in relation to the above, the 3-dimensional structure of each of the compound of Example 1, the compound of Example 2, and the fragment 1 or the fragment 2, was investigated along with band-gap.
10 μM of the compound prepared in Example 3 and 100 μM of each endogenous amino acid (alanine, arginine, cysteine, glutamate, glycine, glutathione, homocysteine, histidine, lysine, methionine, serine, and tyrosine) were added to HEPES (4-(2-hydroxyethyl)piperazine-1-ethanesulfonic acid) buffer (10 mM, pH=7.4) containing 10% dimethylsulfoxide (DMSO), followed by observation of absorption spectrum presented through UV-vis sepctra (Scinco 3000 spectrophotometer, 1 cm quartz cell) at 25° C.
as §1, with “<15-1>” for “<1-1>”

[4] = Absorption and fluorescence spectrum according to the concentration of glutathione; assay type: biochemical; conditions: for absorption signal at 830 nm / fluorescence signal at 780 nm: 10 μM compound
Method: (§2) 10 μM of the compound prepared in Example 2 and glutathione were added to HEPES (4-(2-hydroxyethyl)piperazine-1-ethanesulfonic acid) buffer (10 mM, pH=7.4) containing 10% dimethylsulfoxide (DMSO) with raising slowly the concentration of glutathione from 0 to 50 μM, during which the changes of absorption spectrum were observed using UV-vis sepctra (Scinco 3000 spectrophotometer, 1 cm quartz cell) at 25° C.
as §1, with “<4-1>” for “<1-1>”
as §2, with “Example 3” for “Example 2”, “to 100” for “to 50”
as §1, with “<16-1>” for “<1-1>”

[5] = 100 μM amino acids containing thiol group (glutathione, cysteine, homocysteine, dithiothreitol)
[6] = 100 μM other amino acids not-containing thiol group
[7] = 10 μM compound, 100 μM other amino acids except glutathione
[8] = glutathione raised from 0 to 100 μM

CCCN1/C(=C/C=C2\CCCC(/C=C/C3=[N+](CCC)c4ccccc4C3(C)C)=C2N2CCN(S(=O)(=O)c3ccc([N+](=O)[O-])cc3[N+](=O)[O-])CC2)C(C)(C)c2ccccc21.[I-] [Example 1, 2-((E)-2-((E)-3-((E)-2-(3,3-dimethyl-1-propylindolium-2-ylidene)ethylidene)-2-(4-(2,4-dinitrophenylsulfonyl)piperazine-1-yl)cyclohex-1-enyl)binyl)-3,3-dimethyl-1-propyl-3H-indolium iodide]
absorption strength at 750 nm [1, 5]: strong absorption strength
fluorescence strength at 736 nm [1, 5]: strong fluorescence strength
absorption strength at 750 nm [1, 6]: weak absorption strength
fluorescence strength at 736 nm [1, 6]: weak fluorescence strength
red fluorescence under confocal laser scanning microscope ([2]; HeLa cells pre-treated with NMM, 100 μM cysteine added): strong red fluorescence was observed
red fluorescence under confocal laser scanning microscope ([2]; HeLa cells pre-treated with NMM, 100 μM glutathione added): strong red fluorescence was observed
red fluorescence under confocal laser scanning microscope ([2]; HeLa cells pre-treated with NMM, 100 μM homocysteine added): strong red fluorescence was observed
red fluorescence under confocal laser scanning microscope ([2]; HeLa cells pre-treated with thiol blocker NMM 1 mM): red fluorescence was not observed
red fluorescence under confocal laser scanning microscope ([2]; HeLa cells, 20 minutes): strong red fluorescence was detected

CCCCN1C(=O)c2cccc3c(S(=O)(=O)N4CCN(C5=C(/C=C/C6=[N+](CCC)c7ccccc7C6(C)C)CCC/C5=C\C=C5\N(CCC)c6ccccc6C5(C)C)CC4)ccc(c23)C1=O.[I-] [Example 3, 2-((E)-2-((E)-2-(4-((2-butyl-1,3-dioxo-2,3-dihydro-1H-benzeneisoquinoline-6-yl)sulfonyl)piperazine-1-yl)-3-((E)-2-(3,3-dimethyl-1-propylindolin-2-ylidene)ethylidene)cyclohex-1-en-1-yl)binyl)-3,3-dimethyl-1-propyl-3H-indolium iodide]
fluorescence signal near 780 nm ([3]; 10 μM compound, 100 μM glutathione): strong fluorescence signal
absorption signal near 830 nm ([3]; 10 μM compound, 100 μM glutathione, HEPES pH 7.4, 10% DMSO, 25° C.): weak absorption signal
absorption signal at 830 nm [3, 7]: strong absorption signal
fluorescence signal at 780 nm [3, 7]: weak fluorescence signal
absorption signal at 830 nm ([4]; glutathione not added): strong absorption signal
fluorescence signal at 780 nm ([4]; glutathione not added): weak fluorescence signal
absorption signal at 830 nm [4, 8]: getting weaker
fluorescence signal at 780 nm [4, 8]: getting stronger
dependence of the reaction on glutathione concentration ([4]; conclusion from absorption and fluorescence spectra): dose-dependently

CCCN1/C(=C/C=C2\CCCC(/C=C/C3=[N+](CCC)c4ccccc4C3(C)C)=C2N2CCNCC2)C(C)(C)c2ccccc21 [fragment 2, 2-((E)-2-((E)-3-((E)-2-(3,3-dimethyl-1-propylindolin-2-ylidene)ethylidene)-2-(piperazine-1-yl)cyclohex-1-enyl)binyl)-3,3-dimethyl-1-propyl-3H-indolium iodide]
changes in absorption or fluorescence spectrum (capacity of detecting glutathione) ([3]; same manner as Experimental Example 3, fragment instead of Example 2): no changes in absorption or fluorescence spectrum were detected
